Experimental data published in patent publication US20250375453A1, “HIGH-EFFICIENCY ANTIMICROBIAL COMPOSITION” (CM4CURE S.A., priority 2023, published 2025).

Tests used:
[1] = tested on: Staphylococcus aureus (MRSA, ATCC 6538); test: Real-time microcalorimetric measurement of bacterial metabolic activity (heat flow, Calscreener); format: cell-based
Experimental: Staphylococcus aureus (MRSA, ATCC 6538) was grown overnight in TSB (tryptic soy broth) medium, before being diluted 1×10^6 fold in fresh TSB. Subsequently […] aliquots of diluted bacteria suspensions were respectively supplemented with 1 and 2 mg/L of chlorhexidine (digluconate solution, 20% in H2O, Merck). […] The aqueous solution of chlorhexidine and the ethanol-based solution of triafluocyl were kept refrigerated. Chlorhexidine, triafluocyl or both, and ethanol as a vehicle were added to the bacterial suspensions to obtain the given concentrations followed by a brief vortexing. Bacterial aliquots were then distributed in the dedicated non-activated inserts of a 48-well plate and grown for 24 h or more under static conditions at 37 C using Calscreener technology to measure bacterial growth and metabolic activity in Real-Time as described in https://cordis.europa.eu/project/id/784514.
Staphylococcus aureus (MRSA, ATCC 6538) was grown overnight in TSB (tryptic soy broth) medium, before being diluted 1×10^6 fold in fresh TSB. Subsequently […] aliquots of diluted bacteria suspensions were respectively supplemented with 0.25, 0.5 and 1 μg/mL of chlorhexidine (digluconate solution, 20% in H2O, Merck) or alexidine dihydrochloride (stock solution of 3 mg/mL in ethanol, Merck).
The aqueous solution of chlorhexidine and the ethanol-based solution of alexidine were kept refrigerated. Chlorhexidine, alexidine, and ethanol as a vehicle were added to the bacterial suspensions to obtain the given concentrations followed by a brief vortexing. Bacterial aliquots were then distributed in the dedicated non-activated inserts of a 48-well plate and grown for 24 h or more under static conditions at 37 C using Calscreener technology to measure bacterial growth and metabolic activity in Real-Time as described in https://cordis.europa.eu/project/id/784514.
Staphylococcus aureus (MRSA, ATCC 6538) was grown overnight in TSB (tryptic soy broth) medium, before being diluted 1×10^6 fold in fresh TSB. Subsequently […] aliquots of diluted bacteria suspensions were respectively supplemented with […] of alexidine dihydrochloride (stock solution of 3 mg/mL in ethanol, Merck). […] The ethanol-based solutions of alexidine and fluometacyl were stored at −20° C.
Alexidine alone or with fluometacyl, and ethanol as a vehicle were added to the bacterial suspensions to obtain the given concentrations followed by a brief vortexing. Bacterial aliquots were then distributed in the dedicated non-activated inserts of a 48-well plate and grown for 24 h or more under static conditions at 37 C using Calscreener technology to measure bacterial growth and metabolic activity in Real-Time.

[2] = tested on: Staphylococcus aureus MSSA; conditions: cited from earlier work
Lactobacillus fermentum = conditions: cited from earlier work
Pseudomonas aeruginosa = conditions: cited from earlier work
[3] = tested on: Pseudomonas aeruginosa (ATCC 15442); test: Real-time microcalorimetric measurement of bacterial metabolic activity (heat flow, Calscreener); format: cell-based; conditions: chlorhexidine digluconate alone, tested 1-24 mg/L, TSB, 37 C, 24 h or more
Experimental: Pseudomonas aeruginosa (ATCC 15442) was grown overnight in TSB (tryptic soy broth) medium, before being diluted 1×10^7 fold in fresh TSB. Subsequently […] aliquots of diluted bacteria suspensions were respectively supplemented with 1, 2, 4, 6, 12 and 24 mg/L of chlorhexidine (digluconate solution, 20% in H2O, Merck). The aqueous solution of chlorhexidine was kept refrigerated according to the manufacturer's technical sheet. Chlorhexidine or mQH2O as a vehicle were added to the bacterial suspensions to obtain the given concentrations followed by a brief vortexing. Bacterial aliquots were then distributed in the dedicated non-activated inserts of a 48-well plate and grown for 24h or more under static conditions at 37 C using Calscreener technology to measure bacterial growth and metabolic activity in Real-Time as described in https://cordis.europa.eu/project/id/784514.
For the study of the combination of chlorhexidine and triafluocyl aforementioned diluted bacterial suspensions were supplemented with either chlorhexidine alone (1, 2, 4, 6, 12 mg/L) or mixed with triafluocyl (20 mg/L, Polpharma). Triafluocyl was stored in absolute ethanol in the refrigerator at a concentration of 3 mg/mL. Triafluocyl, chlorhexidine or both, and ethanol as a vehicle were added to the bacterial suspensions to obtain the given concentrations.
Pseudomonas aeruginosa (ATCC 15442) was grown overnight in TSB (tryptic soy broth) medium, before being diluted 1×10^7 fold in fresh TSB. Subsequently […] aliquots of diluted bacteria suspensions were respectively supplemented with […] of alexidine dihydrochloride (stock solution of 3 mg/mL in ethanol, Merck). […] The stock solutions of alexidine and fluometacyl were kept frozen according to the manufacturer's technical sheet. Alexidine alone or with fluometacyl, and ethanol as a vehicle were added to the bacterial suspensions to obtain the given concentrations followed by a brief vortexing. […]

Candida tropicalis = conditions: cited from earlier work
Porphyromonas gingivalis = conditions: cited from earlier work
Escherichia coli = conditions: cited from earlier work
[4] = tested on: Lactobacillus acidophilus; conditions: cited from earlier work

SMILES: [H]/N=C(\N/C(=N/[H])NCCCCCCNC(=N)NC(=N)Nc1ccc(Cl)cc1)Nc1ccc(Cl)cc1 [Chlorhexidine, chlorhexidine]
- effect on metabolic activity (heat flow) ([1]; chlorhexidine 1 mg/L alone): strong shift in a metabolic activity
- effect on metabolic activity (heat flow) ([1]; chlorhexidine 1 mg/mL alone (Example 3)): strong shift in a metabolic activity
- concentration with full growth inhibition or bactericidal effect ([1]; chlorhexidine digluconate alone, tested 1 and 2 mg/L): 2 mg/L
- MIC of chlorhexdine [2]: 0.25 to 8 µg/mL
- MIC of chlorhexdine (Lactobacillus fermentum): 0.25 to 1 µg/mL
- MIC of chlorhexdine (Pseudomonas aeruginosa): 16 to 32 µg/mL
- concentration that fully inhibits bacterial proliferation [3]: 24 mg/L
- MIC of chlorhexdine (Candida tropicalis): 75 µg/mL
- MIC of chlorhexdine (Porphyromonas gingivalis): 0.9 µg/mL
- MIC of chlorhexdine (Escherichia coli): 2 to 16 µg/mL
- MIC of chlorhexdine [4]: 0.5 to 2 µg/mL
